Structures can show the parent of a compound that is named as a salt.
The compounds below were run against T1, histamine H3 receptor (Homo sapiens, UniProt Q9Y5N1) (assay: Histamine H3 functional antagonist assay ([35S]GTPγS SPA, membranes of CHO K1 cells expressing human H3)). Details: functional antagonism of histamine (0.3 μM) stimulated [35S]GTPγS binding, membranes of CHO K1 cells with human histamine H3.
T1 construct: expressed in transfected cells; host or cells: CHO K1 cells carrying pSwitch, transfected with pGeneH3 and induced with mifepristone; clone 3H3; membranes
Format: biochemical
Procedure: A membrane preparation containing histamine H3 receptors may be prepared in accordance with the following procedures:
Ligated DNA was transformed into competent DH5α E. coli host bacterial cells and plated onto Luria Broth (LB) agar containing Zeocin™ (an antibiotic which allows the selection of cells expressing the sh ble gene which is present on pGene and pSwitch) at 50 μg ml^−1. Colonies containing the re-ligated plasmid were identified by restriction analysis. DNA for transfection into mammalian cells was prepared from 250 ml cultures of the host bacterium containing the pGeneH3 plasmid and isolated using a DNA preparation kit (Qiagen Midi-Prep) as per manufacturers guidelines (Qiagen).
CHO K1 cells previously transfected with the pSwitch regulatory plasmid (InVitrogen) were seeded at 2×10e6 cells per T75 flask in Complete Medium, containing Hams F12 (GIBCOBRL, Life Technologies) medium supplemented with 10% v/v dialysed foetal bovine serum, L-glutamine, and hygromycin (100 μg ml^−1), 24 hours prior to use. Plasmid DNA was transfected into the cells using Lipofectamine plus according to the manufacturers guidelines (InVitrogen). 48 hours post transfection cells were placed into complete medium supplemented with 500 μg ml^−1 Zeocin™.
10-14 days post selection 10 nM Mifepristone (InVitrogen), was added to the culture medium to induce the expression of the receptor. […] Approximately 1×10e7 cells were examined for receptor expression by staining with a rabbit polyclonal antibody, 4a, raised against the N-terminal domain of the histamine H3 receptor, incubated on ice for 60 minutes, followed by two washes in sorting medium. […] Following two further washes with Sorting Medium, cells were filtered through a 50 μm Filcon™ (BD Biosciences) and then analysed on a FACS Vantage SE Flow Cytometer fitted with an Automatic Cell Deposition Unit. […] Positively stained cells were sorted as single cells into 96-well plates, containing Complete Medium containing 500 μg ml^−1 Zeocin™ and allowed to expand before reanalysis for receptor expression via antibody and ligand binding studies.
All steps of the protocol are carried out at 4° C. and with pre-cooled reagents. The cell pellet is resuspended in 10 volumes of buffer A2 containing 50 mM N-2-hydroxyethylpiperazine-N′-2-ethanesulfonic acid (HEPES)(pH 7.40) supplemented with 10e−4M leupeptin (acetyl-leucyl-leucyl-arginal; Sigma L2884), 25 μg/ml bacitracin (Sigma B0125), 1 mM ethylenediamine tetra-acetic acid (EDTA), 1 mM phenylmethylsulfonyl fluoride (PMSF) and 2×10e−6M pepstain A (Sigma). The cells are then homogenised by 2×15 second bursts in a 1 litre glass Waring blender, followed by centrifugation at 500 g for 20 minutes. The supernatant is then spun at 48,000 g.for 30 minutes. The pellet is resuspended in 4 volumes of buffer A2 by vortexing for 5 seconds, followed by homogenisation in a Dounce homogeniser (10-15 strokes). At this point the preparation is aliquoted into polypropylene tubes and stored at −70° C. […]
The plate is then incubated on a shaker at room temperature for 30 minutes followed by centrifugation for 5 minutes at 1500 rpm. The plate is read between 3 and 6 hours after completion of centrifuge run in a Wallac Microbeta counter on a 1 minute normalised tritium count protocol. Data is analysed using a 4-parameter logistic equation. Basal activity used as minimum i.e. histamine not added to well.

T1 sequence (Q9Y5N1 whole entry): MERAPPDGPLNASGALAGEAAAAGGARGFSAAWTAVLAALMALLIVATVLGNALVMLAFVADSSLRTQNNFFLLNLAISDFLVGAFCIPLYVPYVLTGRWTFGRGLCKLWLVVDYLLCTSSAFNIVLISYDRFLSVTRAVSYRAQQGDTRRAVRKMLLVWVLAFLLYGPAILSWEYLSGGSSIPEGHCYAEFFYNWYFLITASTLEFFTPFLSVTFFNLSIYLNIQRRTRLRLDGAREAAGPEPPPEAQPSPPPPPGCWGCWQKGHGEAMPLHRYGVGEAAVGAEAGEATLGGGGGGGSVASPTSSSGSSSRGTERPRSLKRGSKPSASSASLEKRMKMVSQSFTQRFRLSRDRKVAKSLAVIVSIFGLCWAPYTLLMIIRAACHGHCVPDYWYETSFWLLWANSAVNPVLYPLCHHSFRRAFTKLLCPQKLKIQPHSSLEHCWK

| Kb | SMILES |
| --- | --- |
| < 1 nM | CC(=O)c1ccc(N2CCC(C(=O)N3CCCN(C(C)C)CC3)CC2)cc1 [Example E150, 1-Isopropyl-4-[1-(4-acetylphenyl)-piperidine-4-carbonyl]-[1,4]-diazepane] |
| < 1 nM | CC(C)N1CCN(C(=O)C2CCN(c3ccc(C(F)(F)F)nc3)CC2)C[C@@H]1C [Example E79, (S)-1-Isopropyl-4-[1-(6-trifluoromethylpyridin-3-yl)-piperidine-4-carbonyl]-2-methyl piperazine] |
| < 3.16 nM | CC(C)N1CCN(C(=O)C2CCN(c3ccc(C#N)cc3)CC2)C[C@@H]1C [Example E70, (S)-1-Isopropyl-4-[1-(4-cyanophenyl)-piperidine-4-carbonyl]-2-methylpiperazine] |
| < 3.16 nM | CC(C)N1CCCN(C(=O)C2CCN(c3ccc(C#N)c(F)c3)CC2)CC1 [Example E41, 1-Isopropyl-4-[1-(4-cyano-3-fluoro-phenyl)-piperidine4-carbonyl]-[1,4]-diazepane] |
| < 3.16 nM | CC(=O)Nc1ccc(N2CCC(C(=O)N3CCCN(C(C)C)CC3)CC2)cc1F [Example E169, 1-Isopropyl-4-[1-(4-acetamido-3-fluorophenyl)-piperidine4-carbonyl]-[1,4]-diazepane] |
| < 0.316 nM | CC(C)N1CCN(C(=O)C2CCN(c3ccc(C(F)(F)F)nc3)CC2)CC1 [Example E96, 1-Isopropyl-4-[1-(6-trifluoromethylpyridin-3-yl)-piperidine-4-carbonyl]-piperazine] |
| < 3.16 nM | N#Cc1cc(F)c(N2CCC(C(=O)N3CCN(C4CCC4)CC3)CC2)c(F)c1 [Example E11, 1-Cyclobutyl4-[1-(4-cyano-2,6-difluorophenyl)-piperidine-4-carbonyl]-piperazine] |
| < 3.16 nM | CC(C)N1CCCN(C(=O)C2CCN(c3ccc(C(F)(F)F)cc3)CC2)CC1 [Example E45, 1-Isopropyl-4-[1-(4-trifluoromethyl-phenyl)-piperidine-4-carbonyl]-[1,4]-diazepane] |
| < 3.16 nM | CC(C)N1CCN(C(=O)C2CCN(c3cnc(C(F)(F)F)cn3)CC2)C[C@@H]1C [Example E87, (S)-1-Isopropyl-4-[1-(5-trifluoromethyl-pyrazin-2-yl)-piperidine4-carbonyl]-2-methyl piperazine] |
| < 3.16 nM | CC(C)N1CCCN(C(=O)C2CCN(c3ccc(C#N)nc3)CC2)CC1 [Example E180, 1-Isopropyl-4-[1-(6-cyano-pyridin-3-yl)-piperidine-4-carbonyl]-[1,4]-diazepane] |
| < 3.16 nM | CC(C)N1CCN(C(=O)C2CCN(c3cnc(C(F)(F)F)cn3)CC2)CC1 [Example E102, 1-Isopropyl-4-[1-(5-trifluoromethyl-pyrazin-2-yl)-piperidine4-carbonyl]-piperazine] |
| < 3.16 nM | COC(=O)c1cnc(N2CCC(C(=O)N3CCN(C(C)C)CC3)CC2)cc1C(F)(F)F [Example E4, 1-Isopropyl-4-[1-(5-methoxycarbonyl-4-trifluoromethylpyridin-2-yl)-piperidine-4-carbonyl]-piperazine] |
| < 3.16 nM | CC(C)N1CCCN(C(=O)C2CCN(c3cnc(C(F)(F)F)cn3)CC2)CC1 [Example E139, 1-Isopropyl-4-[1-(5-trifluoromethylpyrazin-2-yl)-piperidine4-carbonyl]-[1,4]-diazepane] |
| < 3.16 nM | CC(C)N1CCCN(C(=O)C2CCN(c3c(F)cc(C#N)cc3F)CC2)CC1 [Example E42, 1-Isopropyl-4-[1-(4-cyano-2,6-difluoro-phenyl)-piperidine-4-carbonyl]-[1,4]-diazepane] |
| < 3.16 nM | CC(C)N1CCN(C(=O)C2CCN(c3ccc(C(F)(F)F)nn3)CC2)C[C@@H]1C [Example E88, (S)-1-Isopropyl-4-[1-(6-trifluoromethyl-pyridazin-3-yl)-piperidine-4-carbonyl]-2-methyl piperazine] |
| < 3.16 nM | Cc1noc(-c2ccc(N3CCC(C(=O)N4CCN(C(C)C)CC4)CC3)cc2)n1 [Example E185, 1-Isopropyl-4-{1-[4-(3-methyl-1,2,4-oxadiazol-5-yl)phenyl]-piperidine-4-carbonyl}-piperazine] |
| < 3.16 nM | N#Cc1ccc(N2CCC(C(=O)N3CCN(C4CCC4)CC3)CC2)cc1F [Example E10, 1-Cyclobutyl-4-[1-(4-cyano-3-fluorophenyl)-piperidine-4-carbonyl]-piperazine] |
| < 3.16 nM | O=C(C1CCN(c2ccc(C(F)(F)F)nc2)CC1)N1CCCN(C2CCC2)CC1 [Example E136, 1-Cyclobutyl-4-[1-(6-trifluoromethylpyridin-3-yl)-piperidine4-carbonyl]-[1,4]-diazepane] |
| < 3.16 nM | N#Cc1ccc(N2CCC(C(=O)N3CCN(C4CCC4)CC3)CC2)c2ccccc12 [Example E13, 1-Cyclobutyl-4-[1-(4-cyano-naphthalen-1-yl)-piperidine-4-carbonyl]-piperazine] |
| < 3.16 nM | CC(C)N1CCN(C(=O)C2CCN(c3ccc(C#N)nc3)CC2)CC1 [Example E129, 1-Isopropyl-4-[1-(6-cyano-pyridin-3-yl)-piperidine-4-carbonyl]-piperazine] |
| < 3.16 nM | Cc1ncc(-c2ccc(N3CCC(C(=O)N4CCCN(C(C)C)CC4)CC3)cc2)o1 [Example E154, 1-Isopropyl-4-{1-[4-(2-methyl-1,3-oxazol-5-yl)phenyl]-piperidine4-carbonyl}-[1,4]-diazepane] |
| < 3.16 nM | CC(C)N1CCN(C(=O)C2CCN(c3ccc(C#N)cn3)CC2)C[C@@H]1C [Example E86, (S)-1-Isopropyl-4-[1-(5-cyanopyridin-2-yl)-piperidine4-carbonyl]-2-methyl piperazine] |
| < 1 nM | CCC(=O)c1ccc(N2CCC(C(=O)N3CCCN(C(C)C)CC3)CC2)cc1 [Example E151, 1-Isopropyl-4-[1-(4-propanoylphenyl)-piperidine-4-carbonyl]-[1,4]-diazepane] |
| < 3.16 nM | N#Cc1cc(N2CCC(C(=O)N3CCCN(C4CCC4)CC3)CC2)ccn1 [Example E137, 1-Cyclobutyl-4-[1-(2-cyanopyridin-4-yl)-piperidine-4-carbonyl]-[1,4]-diazepane] |
| < 3.16 nM | N#Cc1ccc(N2CCC(C(=O)N3CCN(C4CCCC4)CC3)CC2)cc1 [Example E31, 1-Cyclopentyl-4-[1-(4cyano-phenyl)-piperidine-4-carbonyl]-piperazine hydrochloride] |
| < 3.16 nM | CC(C)N1CCCN(C(=O)C2CCN(c3ccc(Cl)c(Cl)c3)CC2)CC1 [Example E54, 1-Isopropyl-4-[1-(3,4-dichlorophenyl)-piperidine-4-carbonyl]-[1,4]-diazepane] |
| < 3.16 nM | CC(C)N1CCCN(C(=O)C2CCN(c3cc(F)c(C#N)cc3F)CC2)CC1 [Example E39, 1-Isopropyl-4-[1-(4-cyano-2,5-difluorophenyl)-piperidine-4-carbonyl]-[1,4]-diazepane] |
| < 3.16 nM | Cc1ccc2cc(N3CCC(C(=O)N4CCN(C(C)C)CC4)CC3)ccc2n1 [Example E118, 1-Isopropyl-4-[1-(2-methyl-quinolin-6-yl)-piperidine-4-carbonyl]-piperazine] |

| SMILES | Kb |
| --- | --- |
| CC(C)N1CCCN(C(=O)C2CCN(c3ccc(C#N)c4ccccc34)CC2)CC1 [Example E46, 1-Isopropyl-4-[1-(4-cyano-naphthalen-1-yl)-piperidine-4-carbonyl]-[1,4]-diazepane] | < 3.16 nM |
| N#Cc1ccc(N2CCC(C(=O)N3CCCN(C4CCC4)CC3)CC2)cc1F [Example E67, 1-Cyclobutyl-4-[1-(4-cyano-3-fluorophenyl)-piperidine4-carbonyl]-[1,4]-diazepane] | < 3.16 nM |
